From patent US9873693B2 (Sunesis Pharmaceuticals, Inc., priority 2006, dated 2018)
Read-outs that look alike come from different tables or passages of the source.

Columns and labels:
phospho-akt (Thr308) = phospho-akt (Thr308) MSD ELISA in PC-3 cells; format: cell-based; conditions: Homo sapiens; for EC50: PC-3, 2 h
Protocol: PC-3 cells were harvested by trypsin and counted. Cells were plated in coated 96-well flat bottom plates (plate 15,000 cells/well in 100 ul growth media (10% FBS, 1× pen-strep) an place in an incubator overnight.
Subject inhibitors were stocked at 50 mM, then diluted to 30 mM (4.8 μl cpd plus […] DMSO) in 100% DMSO. Three-fold dilutions were performed from 30 mM stock. (4 μl into 8 ul 100% DMSO). Aliquots of 1.0 μl of inhibitor solution were transferred into SF Medium (using deep well block).
Control wells were prepared as follows. For DMSO high controls, 1.0 μl of 100% DMSO was added into 1.0 ml SF.
MSD plates were blocked for 1 hour by adding 150 μl of Blocking Solution (3% BSA) to each well. The MSD plates were washed 4× with TBST, and 50 μl lysates were transferred to MSD plate and place on plate shaker shake at 4 degrees O/N, light shaking (speed 3.5). The plate was washed 4× with TBST.
25 μl of Ab detection solution was added to each well. The plate was sealed and incubated 1 hr RT, light shaking (speed 3.5). The plate was washed 4 times with TBST. 150 μl of Read Buffer was added (5 mls 4×MSD Read Buffer+15 mls water). Finally the plate was read immediately on the MSD plate reader.

phosphorylated PDK1 = phosphorylated PDK1 (Homo sapiens (Human), UniProt O15530); test: PDK1 kinase assay (coupled PDK1/AKT/FAM-crosstide, IMAP); format: biochemical; conditions: 0.5 nM phosphorylated PDK1, 24 μM ATP; read-out: Inhibition of phospo-PDK1 in vitro IC50
Chain of phosphorylated PDK1 (O15530 51-360): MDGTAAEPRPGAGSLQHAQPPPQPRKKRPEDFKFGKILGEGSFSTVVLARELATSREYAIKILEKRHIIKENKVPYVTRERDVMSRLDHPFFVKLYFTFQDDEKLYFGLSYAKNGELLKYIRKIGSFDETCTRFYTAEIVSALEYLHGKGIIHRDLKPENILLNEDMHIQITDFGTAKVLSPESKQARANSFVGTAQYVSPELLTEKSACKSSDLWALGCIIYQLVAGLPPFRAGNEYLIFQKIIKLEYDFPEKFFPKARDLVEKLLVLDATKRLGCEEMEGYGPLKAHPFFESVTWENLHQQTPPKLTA

[1] = PC-3 cells, 2 hours, no serum, read-out: Inhibition of P308 Akt in cells using MSD EC50
[2] = read-out: Inhibition of P308 Akt in cells using MSD EC50
[3] = PC-3 cells, 2 hours, no serum, read-out: Reduction of Cellular Levels of Akt p308 By MSD ELISA (EC50 μM)

In the case of `O=C1Nc2cc(/C=C/CNC(=O)c3cccn(Cc4cc(F)c(F)c(F)c4)c3=O)ccc2/C1=C/c1cccs1` [Cpd 198], the EC50 (phospho-akt (Thr308); [1]) is reported as 1 to 5 µM and the IC50 (phosphorylated PDK1) is reported as less than 500 nM.

With `O=C(NCc1cc(-c2c[nH]c3ncccc23)cc(C(F)F)n1)c1cccn(Cc2ccc(F)c(F)c2)c1=O` [Cpd 208] the EC50 (phospho-akt (Thr308); [1]) was less than 1 µM and the IC50 (phosphorylated PDK1) was less than 500 nM.

`N#Cc1cc(-c2c[nH]c3ncccc23)cc(CNC(=O)c2cccn(Cc3ccc(F)c(F)c3)c2=O)n1` [Cpd 191] showed an EC50 (phospho-akt (Thr308); [2]) of less than 1 µM and an IC50 (phosphorylated PDK1) of less than 500 nM.

Work on `O=C(NC(C(=O)O)c1ccc(-c2c[nH]c3ncccc23)s1)c1cccn(Cc2ccc(F)c(F)c2)c1=O` (centres unmarked) [Cpd 335] yielded an EC50 (phospho-akt (Thr308); [3]) greater than 5 µM and an IC50 (phosphorylated PDK1) of 500 to 10000 nM.

For `O=C(N[C@H](CO)c1nnc(-c2c[nH]c3ncccc23)o1)c1cccn(Cc2ccc(F)c(F)c2)c1=O` [Cpd 284], the EC50 (phospho-akt (Thr308); [1]) was 1 to 5 µM, the EC50 (phospho-akt (Thr308); [3]) was 1 to 5 µM and the IC50 (phosphorylated PDK1) was less than 500 nM.

For `O=C1Nc2cc(/C=C/CNC(=O)c3cccn(Cc4cc(F)c(F)c(F)c4)c3=O)ccc2/C1=C\c1nccs1` [Cpd 202], the EC50 (phospho-akt (Thr308); [1]) was 1 to 5 µM and the IC50 (phosphorylated PDK1) was less than 500 nM.

In the case of `O=C(NCc1cccc(-c2c[nH]c3nccnc23)c1)c1cccn(Cc2ccc(F)c(F)c2)c1=O` [Cpd 13], the EC50 (phospho-akt (Thr308); [1]) is reported as 1 to 5 µM, the inhibition at 1 µM (phospho-akt (Thr308); PC-3 cells, at 1 μM, read-out: Percent Inhibition of phospho-Akt (308) By MSD ELISA) is reported as 25 to 75% and the inhibition at 10 µM (phospho-akt (Thr308); PC-3 cells, at 10 μM, read-out: Percent Inhibition of phospho-Akt (308) By MSD ELISA) is reported as greater than 75%. The IC50 (phosphorylated PDK1) was less than 500 nM.

`O=C(NCc1nccc(-c2c[nH]c3ncccc23)n1)c1cccn(Cc2ccc(F)c(F)c2)c1=O` [Cpd 146] gave an EC50 (phospho-akt (Thr308); [1]) greater than 5 µM, an EC50 (phospho-akt (Thr308); [3]) of 1 to 5 µM and an IC50 (phosphorylated PDK1) of less than 500 nM.

`O=C(NC/C=C/c1ccc2[nH]c(=O)[nH]c2c1)c1cccn(Cc2ccc(F)c(F)c2)c1=O` [Cpd 160] showed an EC50 (phospho-akt (Thr308); [1]) greater than 5 µM and an IC50 (phosphorylated PDK1) of less than 500 nM.

With `CC(C)/C=C1/C(=O)Nc2cc(/C=C/CNC(=O)c3cccn(Cc4cc(F)c(F)c(F)c4)c3=O)ccc21` [Cpd 205] the EC50 (phospho-akt (Thr308); [1]) was greater than 5 µM and the IC50 (phosphorylated PDK1) was less than 500 nM.

`NC(=O)c1cnc2[nH]cc(-c3ccc(CNC(=O)c4cccn(Cc5ccc(F)c(F)c5)c4=O)s3)c2c1` [Cpd 39] was tested, and the EC50 (phospho-akt (Thr308); [1]) was less than 1 µM, the EC50 (phospho-akt (Thr308); [3]) was less than 1 µM and the IC50 (phosphorylated PDK1) was less than 500 nM.

`NC(=O)c1cnc2[nH]cc(-c3cccc(CNC(=O)c4cccn(Cc5ccc(F)c(F)c5)c4=O)c3)c2c1` [Cpd 26] showed an EC50 (phospho-akt (Thr308); [1]) of less than 1 µM, an EC50 (phospho-akt (Thr308); [3]) of less than 1 µM and an IC50 (phosphorylated PDK1) of less than 500 nM.

`CNC(=O)c1cnc2[nH]cc(-c3cccc(CNC(=O)c4cccn(Cc5ccc(F)c(F)c5)c4=O)c3)c2c1` [Cpd 239] gave an EC50 (phospho-akt (Thr308); [1]) of 1 to 5 µM, an EC50 (phospho-akt (Thr308); [3]) of less than 1 µM and an IC50 (phosphorylated PDK1) of less than 500 nM.

With `O=C1Nc2cc(/C=C/CNC(=O)c3cccn(Cc4cc(F)c(F)c(F)c4)c3=O)ccc2/C1=C/c1ncc[nH]1` [Cpd 195] the EC50 (phospho-akt (Thr308); [1]) was less than 1 µM and the IC50 (phosphorylated PDK1) was less than 500 nM.

`O=C(N[C@@H](COc1ccc2[nH]c(=O)[nH]c2c1)c1ccccc1)c1cccn(Cc2cc(F)c(F)c(F)c2)c1=O` [Cpd 174] gave an EC50 (phospho-akt (Thr308); [2]) of 1 to 5 µM and an IC50 (phosphorylated PDK1) of less than 500 nM.

`O=C(NCc1cccc(-c2c[nH]c3ncccc23)c1)c1cccn(Cc2ccc(F)c(F)c2)c1=O` [Cpd 126] showed an EC50 (phospho-akt (Thr308); [1]) of 1 to 5 µM, an EC50 (phospho-akt (Thr308); [3]) of less than 1 µM and an IC50 (phosphorylated PDK1) of less than 500 nM.

In the case of `CC(C)Oc1cc(CNC(=O)c2cccn(Cc3ccc(F)c(F)c3)c2=O)cc(-c2c[nH]c3ncccc23)c1` [Cpd 25], the EC50 (phospho-akt (Thr308); [2]) is reported as less than 1 µM, the EC50 (phospho-akt (Thr308); read-out: Reduction of Cellular Levels of Akt p308 By MSD ELISA (EC50 μM)) is reported as less than 1 µM and the IC50 (phosphorylated PDK1) is reported as less than 500 nM.

In the case of `COCCNC(=O)c1cnc2[nH]cc(-c3cccc(CNC(=O)c4cccn(Cc5ccc(F)c(F)c5)c4=O)c3)c2c1` [Cpd 30], the EC50 (phospho-akt (Thr308); [1]) is reported as less than 1 µM, the EC50 (phospho-akt (Thr308); [3]) is reported as less than 1 µM and the IC50 (phosphorylated PDK1) is reported as less than 500 nM.

Compound `O=C(NCc1noc(-c2c[nH]c3ncccc23)n1)c1cc([N+](=O)[O-])cn(Cc2cc(F)c(F)c(F)c2)c1=O` [Cpd 184] has an EC50 (phospho-akt (Thr308); [1]) of 1 to 5 µM and an IC50 (phosphorylated PDK1) of less than 500 nM.

For `O=C(NCc1cccc(-c2c[nH]c3ncccc23)c1)c1cccn(Cc2ccc(Cl)c(Cl)c2)c1=O` [Cpd 324], the EC50 (phospho-akt (Thr308); [1]) was greater than 5 µM, the EC50 (phospho-akt (Thr308); [3]) was greater than 5 µM and the IC50 (phosphorylated PDK1) was less than 500 nM.

Compound `O=C(NCc1ccc(-c2ccc3cn[nH]c3c2)s1)c1cccn(Cc2ccc(F)c(F)c2)c1=O` [Cpd 59] has an EC50 (phospho-akt (Thr308); [1]) of 1 to 5 µM and an IC50 (phosphorylated PDK1) of less than 500 nM.

For `O=C(NCc1cc(-c2c[nH]c3ncccc23)ccn1)c1cccn(Cc2ccc(F)c(F)c2)c1=O` [Cpd 164], the EC50 (phospho-akt (Thr308); [1]) was less than 1 µM and the IC50 (phosphorylated PDK1) was less than 500 nM.

`O=C(NCCCc1ccc2[nH]c(=O)[nH]c2c1)c1cccn(Cc2ccc(F)c(F)c2)c1=O` [Cpd 161] gave an IC50 (phosphorylated PDK1) of less than 500 nM.
